Assay results: ChEMBL document CHEMBL1156581, “Polychlorinated compounds with PPAR-gamma agonistic effect from the medicinal fungus Phellinus ribis” (Bioorg Med Chem Lett, 2008)
The source made the active and inactive calls. The rule behind the calls is not given here.

Legend:
[1] = target: T1, Peroxisome proliferator-activated receptor gamma (Homo sapiens) (UniProt P37231); assay: Agonist activity at PPARgamma expressed in mouse NIH3T3 cells assessed as maximum activation at 100 uM after 16 hrs by reporter gene assay; type: functional, cell-based
T1 sequence (whole entry): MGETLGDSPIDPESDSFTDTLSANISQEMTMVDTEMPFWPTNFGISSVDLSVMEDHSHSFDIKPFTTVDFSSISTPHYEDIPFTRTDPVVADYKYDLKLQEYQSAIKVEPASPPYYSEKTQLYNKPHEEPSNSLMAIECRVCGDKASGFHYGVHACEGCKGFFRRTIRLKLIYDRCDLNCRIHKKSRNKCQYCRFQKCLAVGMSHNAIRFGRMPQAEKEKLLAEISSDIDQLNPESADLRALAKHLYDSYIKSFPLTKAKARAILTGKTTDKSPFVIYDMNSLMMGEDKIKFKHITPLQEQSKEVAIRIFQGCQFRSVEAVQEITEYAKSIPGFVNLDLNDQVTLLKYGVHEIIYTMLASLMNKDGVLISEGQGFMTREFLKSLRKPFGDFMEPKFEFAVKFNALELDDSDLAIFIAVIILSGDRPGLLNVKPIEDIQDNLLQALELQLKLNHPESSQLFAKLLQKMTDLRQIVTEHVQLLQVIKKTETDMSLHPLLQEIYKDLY

[2] = target: T1, Peroxisome proliferator-activated receptor gamma (Homo sapiens); assay: Agonist activity at PPARgamma expressed in mouse NIH3T3 cells assessed as maximum activation at 10 uM after 16 hrs by reporter gene assay; type: functional, cell-based
[3] = system: Bacillus subtilis; assay: Antimicrobial activity against Bacillus subtilis; type: functional, organism-based
[4] = system: Staphylococcus aureus; assay: Antimicrobial activity against Staphylococcus aureus; type: functional, organism-based
[5] = system: Escherichia coli; assay: Antimicrobial activity against Escherichia coli; type: functional, organism-based

Row | fold change (FC) [1] | fold change (FC) [2] | SMILES | Activity [3] | Activity [4] | Activity [5]
1 | 8.4 |  | COc1c(Cl)c(Cl)c(O)c(Cl)c1Cl |  |  | 
2 |  | 2 | COc1c(Cl)c(Cl)c(Oc2c(O)c(Cl)c(OC)c(Cl)c2Oc2c(Cl)c(Cl)c(OC)c(Cl)c2Cl)c(Cl)c1Cl | inactive | inactive | inactive
3 |  | 8.5 | COc1c(Cl)c(Cl)c(Oc2c(Cl)c(OC)c(Cl)c(Cl)c2Oc2c(O)c(Cl)c(Cl)c(OC)c2Cl)c(Cl)c1Cl | inactive | inactive | inactive
4 |  | 2 | COc1c(Cl)c(Cl)c(Oc2c(O)c(Oc3c(Cl)c(Cl)c(OC)c(Cl)c3Cl)c(Cl)c(OC)c2Cl)c(Cl)c1Cl | inactive | inactive | inactive
